Measured values taken from patent publication US10590113B2, “6-hydroxy-4-oxo-1,4-dihydropyrimidine-5-carboxamides as APJ agonists” (priority 2016, dated 2020).

target: T1, human APJ receptor (Homo sapiens, UniProt P35414); experiment: Intracellular cAMP Accumulation Assay (APJ hcAMP, HTRF); assay type: cell-based; settings: human APJ, intracellular cAMP accumulation; read-out: hAPJ cAMP EC50 Potency range
T1 construct: expressed in transfected cells; host or cells: HEK293
T1 sequence (P35414 1-380): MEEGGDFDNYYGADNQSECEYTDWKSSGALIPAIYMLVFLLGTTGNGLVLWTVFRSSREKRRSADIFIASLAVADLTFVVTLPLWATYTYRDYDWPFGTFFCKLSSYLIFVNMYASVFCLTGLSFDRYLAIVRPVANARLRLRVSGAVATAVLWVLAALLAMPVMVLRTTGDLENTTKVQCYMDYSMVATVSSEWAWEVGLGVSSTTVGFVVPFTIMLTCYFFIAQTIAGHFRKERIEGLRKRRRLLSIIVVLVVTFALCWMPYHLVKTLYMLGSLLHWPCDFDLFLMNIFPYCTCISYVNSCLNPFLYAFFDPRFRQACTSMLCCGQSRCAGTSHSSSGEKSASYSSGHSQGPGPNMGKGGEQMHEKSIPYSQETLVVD
How it was run: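 Stably transfected HEK293 cells (5,000/well) incubated 30 min at room temperature with serially diluted compound, […] and 2 μM forskolin. cAMP measured by HTRF after 60 min with detection reagents, quantified against a cAMP standard curve; EC50 from variable-slope sigmoidal fit of inhibition of forskolin-stimulated cAMP.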

Question: With `CCCCc1nc(=O)c(C(=O)N2CC[C@H](c3ccccc3)C2)c(O)n1[C@H](CC)c1ccccc1` [Example 124, 2-butyl-6-hydroxy-3-[(1R)-1-phenylpropyl]-5-[(3R)-3-phenylpyrrolidine-1-carbonyl]-3,4-dihydropyrimidin-4-one] as the compound, how does the EC50 read?
Answer: 0.01 to 10 nM

Question: `CCCCc1nc(=O)c(C(=O)N2CC[C@@H](c3ccccc3)C2)c(O)n1[C@@H](C)c1ccccc1` [Example 125, 2-butyl-6-hydroxy-3-[(1S)-1-phenylethyl]-5-[(3S)-3-phenylpyrrolidine-1-carbonyl]-3,4-dihydropyrimidin-4-one] was tested. Which EC50 did it give?
Answer: 0.01 to 10 nM

Question: Which EC50 does the source give for `CCCCc1nc(=O)c(C(=O)N2CC[C@H](c3ccccc3)C2)c(O)n1[C@@H](C)C1CC1` [Example 126, 2-butyl-3-[(1S)-1-cyclopropylethyl]-6-hydroxy-5-[(3R)-3-phenylpyrrolidine-1-carbonyl]-3,4-dihydropyrimidin-4-one] here?
Answer: 0.01 to 10 nM

Question: For `CCCCc1nc(=O)c(C(=O)N2CC[C@@H](c3ccccc3)C2)c(O)n1[C@@H](COC)c1ccccc1` [Example 127, 2-butyl-6-hydroxy-3-[(1R)-2-methoxy-1-phenylethyl]-5-[(3S)-3-phenylpyrrolidine-1-carbonyl]-3,4-dihydropyrimidin-4-one], which EC50 is on record?
Answer: 10 to 100 nM

Question: Which EC50 does the source give for `CCCCc1nc(=O)c(C(=O)N2CC[C@@H](c3ccccc3)C2)c(O)n1[C@H](CC)c1ccccc1` [Example 128, 2-butyl-6-hydroxy-3-[(1R)-1-phenylpropyl]-5-[(3S)-3-phenylpyrrolidine-1-carbonyl]-3,4-dihydropyrimidin-4-one] here?
Answer: 10 to 100 nM

Question: How did the EC50 turn out when `CCCCc1nc(=O)c(C(=O)N2CC[C@@H](c3ccccc3)C2)c(O)n1C(c1ccccc1)C(C)C` (stereo partly drawn) [Example 129, 2-butyl-6-hydroxy-3-(2-methyl-1-phenylpropyl)-5-[(3S)-3-phenylpyrrolidine-1-carbonyl]-3,4-dihydropyrimidin-4-one] was run?
Answer: 10 to 100 nM

Question: For `CCCCc1nc(=O)c(C(=O)N2CC[C@H](c3ccccc3)C2)c(O)n1C(c1ccccc1)C(C)C` (stereo partly drawn) [Example 130, 2-butyl-6-hydroxy-3-(2-methyl-1-phenylpropyl)-5-[(3R)-3-phenylpyrrolidine-1-carbonyl]-3,4-dihydropyrimidin-4-one], which EC50 is on record?
Answer: 10 to 100 nM

Question: How did the EC50 turn out when `CCCCc1nc(=O)c(C(=O)N2CC[C@@H](c3ccccc3)C2)c(O)n1[C@@H](C)C1CC1` [Example 131, 2-butyl-3-[(1S)-1-cyc1opropylethyl]-6-hydroxy-5-[(3S)-3-phenylpyrrolidine-1-carbonyl]-3,4-dihydropyrimidin-4-one] was run?
Answer: 10 to 100 nM

Question: Which EC50 does the source give for `CCCCc1nc(=O)c(C(=O)N2CC[C@@H](c3ccccc3)C2)c(O)n1[C@H](C)c1ccccc1` [Example 132, 2-butyl-6-hydroxy-3-[(1R)-1-phenylethyl]-5-[(3S)-3-phenylpyrrolidine-1-carbonyl]-3,4-dihydropyrimidin-4-one] here?
Answer: 10 to 100 nM

Question: For `CCCCc1nc(=O)c(C(=O)N2CC[C@@H](c3ccccc3)C2)c(O)n1C(C)c1ccccc1Cl` (stereo partly drawn) [Example 133, 2-butyl-3-[1-(2-chlorophenyl)ethyl]-6-hydroxy-5-[(3S)-3-phenylpyrrolidine-1-carbonyl]-3,4-dihydropyrimidin-4-one], which EC50 is on record?
Answer: 10 to 100 nM

Question: For `CCCCc1nc(=O)c(C(=O)N2CC[C@H](c3ccccc3)C2)c(O)n1C(C)c1ccccc1Cl` (stereo partly drawn) [Example 134, 2-butyl-3-[1-(2-chlorophenyl)ethyl]-6-hydroxy-5-[(3R)-3-phenylpyrrolidine-1-carbonyl]-3,4-dihydropyrimidin-4-one], which EC50 is on record?
Answer: 10 to 100 nM

Question: `CCCCc1nc(=O)c(C(=O)N2CC[C@@H](c3ccccc3)C2)c(O)n1[C@H](C)c1ccccc1OC` [Example 135, 2-butyl-6-hydroxy-3-[(1R)-1-(2-methoxyphenyl)ethyl]-5-[(3S)-3-phenylpyrrolidine-1-carbonyl]-3,4-dihydropyrimidin-4-one] was tested. Which EC50 did it give?
Answer: 10 to 100 nM

Question: For `CCCCc1nc(=O)c(C(=O)N2CC[C@@H](c3ccccc3)C2)c(O)n1C(C)c1ccccc1` (stereo partly drawn) [Example 136, 2-butyl-6-hydroxy-3-(1-phenylethyl)-5-[(3S)-3-phenylpyrrolidine-1-carbonyl]-3,4-dihydropyrimidin-4-one], which EC50 is on record?
Answer: 10 to 100 nM

Question: How did the EC50 turn out when `CCCCc1nc(=O)c(C(=O)N2CC[C@H](c3ccccc3)C2)c(O)n1[C@@H](CCC)c1ccccc1` [Example 137, 2-butyl-6-hydroxy-3-[(1S)-1-phenylbutyl]-5-[(3R)-3-phenylpyrrolidine-1-carbonyl]-3,4-dihydropyrimidin-4-one] was run?
Answer: 10 to 100 nM

Question: `CCCCc1nc(=O)c(C(=O)N2CC[C@H](c3ccccc3)C2)c(O)n1[C@@H](C)c1cccc(C#N)c1` [Example 138, 3-[(1S)-1-{2-butyl-4-hydroxy-6-oxo-5-[(3R)-3-phenylpyrrolidine-1-carbonyl]-1,6-dihydropyrimidin-1-yl}ethyl]benzonitrile] was tested. Which EC50 did it give?
Answer: 10 to 100 nM

Question: With `CCCCc1nc(=O)c(C(=O)N2CC[C@H](c3ccccc3)C2)c(O)n1[C@@H](C)c1cccc(OC)c1` [Example 139, 2-butyl-6-hydroxy-3-[(1S)-1-(3-methoxyphenyl)ethyl]-5-[(3R)-3-phenylpyrrolidine-1-carbonyl]-3,4-dihydropyrimidin-4-one] as the compound, how does the EC50 read?
Answer: 10 to 100 nM

Question: How did the EC50 turn out when `CCCCc1nc(=O)c(C(=O)N2CC[C@H](c3ccccc3)C2)c(O)n1C(C)c1cccnc1` (stereo partly drawn) [Example 140, 2-butyl-6-hydroxy-5-[(3R)-3-phenylpyrrolidine-1-carbonyl]-3-[1-(pyridin-3-yl)ethyl]-3,4-dihydropyrimidin-4-one] was run?
Answer: 10 to 100 nM

Question: `CCCCc1nc(=O)c(C(=O)N2CC[C@H](c3ccccc3)C2)c(O)n1[C@@H](C)c1ccccc1` [Example 141, 2-butyl-6-hydroxy-3-[(1S)-1-phenylethyl]-5-[(3R)-3-phenylpyrrolidine-1-carbonyl]-3,4-dihydropyrimidin-4-one] was tested. Which EC50 did it give?
Answer: 10 to 100 nM

Question: Which EC50 does the source give for `CCCCc1nc(=O)c(C(=O)N2CC[C@H](c3ccccc3)C2)c(O)n1[C@H](C)C1CC1` [Example 142, 2-butyl-3-[(1R)-1-cyc1opropylethyl]-6-hydroxy-5-[(3R)-3-phenylpyrrolidine-1-carbonyl]-3,4-dihydropyrimidin-4-one] here?
Answer: 10 to 100 nM

Question: `CCCCc1nc(=O)c(C(=O)N2CC[C@@H](c3ccccc3)C2)c(O)n1[C@@H](C)c1ccc(F)cc1` [Example 143, 2-butyl-3-[(1S)-1-(4-fluorophenyl)ethyl]-6-hydroxy-5-[(3S)-3-phenylpyrrolidine-1-carbonyl]-3,4-dihydropyrimidin-4-one] was tested. Which EC50 did it give?
Answer: 10 to 100 nM

Question: With `CCCCc1nc(=O)c(C(=O)N2CC[C@@H](c3ccccc3)C2)c(O)n1C(C)c1cccnc1` (stereo partly drawn) [Example 146, 2-butyl-6-hydroxy-5-[(3S)-3-phenylpyrrolidine-1-carbonyl]-3-[1-(pyridin-3-yl)ethyl]-3,4-dihydropyrimidin-4-one] as the compound, how does the EC50 read?
Answer: 10 to 100 nM

Question: How did the EC50 turn out when `CCCCc1nc(=O)c(C(=O)N2CC[C@H](c3ccccc3)C2)c(O)n1C(C)c1ccncc1` (stereo partly drawn) [Example 148, 2-butyl-6-hydroxy-5-[(3R)-3-phenylpyrrolidine-1-carbonyl]-3-[1-(pyridin-4-yl)ethyl]3,4-dihydropyrimidin-4-one] was run?
Answer: 10 to 100 nM

Question: For `CCCCc1nc(=O)c(C(=O)N2CC[C@@H](c3ccccc3)C2)c(O)n1[C@@H](C)c1cccc(C#N)c1` [Example 149, 3-[(1S)-1-{2-butyl-4-hydroxy-6-oxo-5-[(3S)-3-phenylpyrrolidine-1-carbonyl]-1,6-dihydropyrimidin-1-yl}ethyl]benzonitrile], which EC50 is on record?
Answer: 10 to 100 nM

Question: With `CCCCc1nc(=O)c(C(=O)N2CC[C@H](c3ccccc3)C2)c(O)n1C(C)C` [Example 150, 2-butyl-6-hydroxy-5-[(3R)-3-phenylpyrrolidine-1-carbonyl]-3-(propan-2-yl)-3,4-dihydropyrimidin-4-one] as the compound, how does the EC50 read?
Answer: 10 to 100 nM

Question: With `CCCCc1nc(=O)c(C(=O)N2CC[C@@H](c3ccccc3)C2)c(O)n1[C@@H](C)c1ccccc1OC` [Example 151, 2-butyl-6-hydroxy-3-[(1S)-1-(2-methoxypheny)ethyl]-5-[(3S)-3-phenylpyrrolidine-1-carbonyl]-3,4-dihydropyrimidin-4-one] as the compound, how does the EC50 read?
Answer: 10 to 100 nM

Question: Which EC50 does the source give for `CCCCc1nc(=O)c(C(=O)N2CC[C@H](c3ccccc3)C2)c(O)n1[C@H](COC)c1ccccc1` [Example 152, 2-butyl-6-hydroxy-3-[(1S)-2-methoxy-1-phenylethyl]-5-[(3R)-3-phenylpyrrolidine-1-carbonyl]-3,4-dihydropyrimidin-4-one] here?
Answer: 10 to 100 nM

Question: `CCCCc1nc(=O)c(C(=O)N2CC[C@@H](c3ccccc3)C2)c(O)n1[C@@H](CCC)c1ccccc1` [Example 153, 2-butyl-6-hydroxy-3-[(1S)-1-phenylbutyl]-5-[(3S)-3-phenylpyrrolidine-1-carbonyl]-3,4-dihydropyrimidin-4-one] was tested. Which EC50 did it give?
Answer: 10 to 100 nM

Question: With `CCCCc1nc(=O)c(C(=O)N2CC[C@@H](c3ccccc3)C2)c(O)n1[C@H](COC)c1ccccc1` [Example 154, 2-butyl-6-hydroxy-3-[(1S)-2-methoxy-1-phenylethyl]-5-[(3S)-3-phenylpyrrolidine-1-carbonyl]-3,4-dihydropyrimidin-4-one] as the compound, how does the EC50 read?
Answer: 10 to 100 nM

Question: `CCCCc1nc(=O)c(C(=O)N2CC[C@@H](c3ccccc3)C2)c(O)n1[C@H](C)C1CC1` [Example 155, 2-butyl-3-[(1R)-1-cyclopropylethyl]-6-hydroxy-5-[(3S)-3-phenylpyrrolidine-1-carbonyl]-3,4-dihydropyrimidin-4-one] was tested. Which EC50 did it give?
Answer: 100 to 300 nM

Question: How did the EC50 turn out when `CCCCc1nc(=O)c(C(=O)N2CC[C@H](c3ccccc3)C2)c(O)n1[C@@H](C)c1ccccc1OC` [Example 156, 2-butyl-6-hydroxy-3-[(1S)-1-(2-methoxyphenyl)ethyl]-5-[(3R)-3-phenylpyrrolidine-1-carbonyl]-3,4-dihydropyrimidin-4-one] was run?
Answer: 100 to 300 nM
